# Test results: ChEMBL document CHEMBL4270521, “Design, synthesis and biological evaluation of a series of novel 2-benzamide-4-(6-oxy-N-methyl-1-naphthamide)-pyridine derivatives as potent fibroblast growth factor receptor (FGFR) inhibitors” (Eur J Med Chem, 2018)
# What was measured:
# [1] = molecular target: Fibroblast growth factor receptor 1 (Homo sapiens, UniProt P11362); assay: Inhibition of recombinant FGFR1 (unknown origin) using poly (Glu, Tyr) 4:1 as substrate after 60 mins by ELISA based spectrophotometric method
# Fibroblast growth factor receptor 1, sequence (P11362 whole entry): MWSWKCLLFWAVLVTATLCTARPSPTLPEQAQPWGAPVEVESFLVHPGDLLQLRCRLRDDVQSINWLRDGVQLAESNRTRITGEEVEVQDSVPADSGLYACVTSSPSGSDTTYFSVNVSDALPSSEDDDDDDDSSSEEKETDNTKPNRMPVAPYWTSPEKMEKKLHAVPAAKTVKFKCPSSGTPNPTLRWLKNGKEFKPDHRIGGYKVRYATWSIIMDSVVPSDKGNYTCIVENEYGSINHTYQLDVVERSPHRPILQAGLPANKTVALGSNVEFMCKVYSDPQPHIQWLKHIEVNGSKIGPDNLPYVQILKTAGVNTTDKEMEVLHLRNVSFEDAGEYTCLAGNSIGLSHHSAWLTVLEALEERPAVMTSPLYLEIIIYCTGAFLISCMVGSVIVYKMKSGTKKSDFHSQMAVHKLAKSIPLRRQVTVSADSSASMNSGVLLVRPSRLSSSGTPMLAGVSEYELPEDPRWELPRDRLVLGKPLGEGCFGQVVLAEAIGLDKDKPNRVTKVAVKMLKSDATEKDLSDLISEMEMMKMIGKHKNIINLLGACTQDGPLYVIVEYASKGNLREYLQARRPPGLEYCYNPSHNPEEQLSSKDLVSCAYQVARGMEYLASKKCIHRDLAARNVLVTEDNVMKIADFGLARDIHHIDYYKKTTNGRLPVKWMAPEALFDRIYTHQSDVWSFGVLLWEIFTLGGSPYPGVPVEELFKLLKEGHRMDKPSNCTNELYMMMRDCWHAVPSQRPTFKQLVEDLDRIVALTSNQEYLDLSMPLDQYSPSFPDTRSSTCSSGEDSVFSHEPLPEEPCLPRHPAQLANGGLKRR
# KG-1 = assay: Antiproliferative activity against human KG1 cells expressing FGFR1 after 72 hrs; format: functional, cell-based; settings: KG-1, 72 h
# [2] = Aqueous solubility of the compound; format: physicochemical; settings: buffer
# SNU-16 [3] = assay: Antitumor activity against human SNU16 cells xenografted in nude mouse assessed as tumor growth inhibition at 50 mg/kg, ip qd administered for 21 consecutive days and measured twice per week relative to control; format: functional; settings: SNU-16, ip, read-out: TGI
# SNU-16 [4] = assay: Antitumor activity against human SNU16 cells xenografted in nude mouse assessed as tumor growth inhibition at 10 mg/kg, ip qd administered for 21 consecutive days and measured twice per week relative to control; format: functional; settings: SNU-16, ip, read-out: TGI
# Mus musculus = assay: Toxicity in nude mouse xenografted with human SNU16 cells assessed as body weight loss at 10 to 50 mg/kg, ip qd administered for 21 consecutive days and measured twice per week; format: organism-based; settings: in vivo
# BaF3 = assay: Antiproliferative activity against mouse BAF3 cells expressing VEGFR2 after 72 hrs; format: functional, cell-based; settings: BaF3, 72 h
# RT-112 = assay: Antiproliferative activity against human RT112 cells expressing FGFR3 after 72 hrs; format: functional, cell-based; settings: RT-112, 72 h
# NCI-H1581 = assay: Antiproliferative activity against human NCI-H1581 cells expressing FGFR1 after 72 hrs; format: functional, cell-based; settings: NCI-H1581, 72 h
# [5] = Antiproliferative activity against human UM-UC-14 cells expressing FGFR3 after 72 hrs; format: functional, cell-based; settings: UMUC14, 72 h
# SNU-16 [6] = assay: Antiproliferative activity against human SNU16 cells expressing FGFR2 after 72 hrs; format: functional, cell-based; settings: SNU-16, 72 h
# [7] = AUCinfinity in Sprague-Dawley rat at 1 mg/kg, iv by LC-MS/MS analysis; format: ADME, organism-based; parameters: dose 1 mg/kg, route intravenous, time infinity; settings: in vivo
# [8] = molecular target: Fibroblast growth factor receptor 2 (Homo sapiens, UniProt P21802); assay: Inhibition of recombinant FGFR2 (unknown origin) using poly (Glu, Tyr) 4:1 as substrate after 60 mins by ELISA based spectrophotometric method
# Fibroblast growth factor receptor 2, sequence (P21802 whole entry): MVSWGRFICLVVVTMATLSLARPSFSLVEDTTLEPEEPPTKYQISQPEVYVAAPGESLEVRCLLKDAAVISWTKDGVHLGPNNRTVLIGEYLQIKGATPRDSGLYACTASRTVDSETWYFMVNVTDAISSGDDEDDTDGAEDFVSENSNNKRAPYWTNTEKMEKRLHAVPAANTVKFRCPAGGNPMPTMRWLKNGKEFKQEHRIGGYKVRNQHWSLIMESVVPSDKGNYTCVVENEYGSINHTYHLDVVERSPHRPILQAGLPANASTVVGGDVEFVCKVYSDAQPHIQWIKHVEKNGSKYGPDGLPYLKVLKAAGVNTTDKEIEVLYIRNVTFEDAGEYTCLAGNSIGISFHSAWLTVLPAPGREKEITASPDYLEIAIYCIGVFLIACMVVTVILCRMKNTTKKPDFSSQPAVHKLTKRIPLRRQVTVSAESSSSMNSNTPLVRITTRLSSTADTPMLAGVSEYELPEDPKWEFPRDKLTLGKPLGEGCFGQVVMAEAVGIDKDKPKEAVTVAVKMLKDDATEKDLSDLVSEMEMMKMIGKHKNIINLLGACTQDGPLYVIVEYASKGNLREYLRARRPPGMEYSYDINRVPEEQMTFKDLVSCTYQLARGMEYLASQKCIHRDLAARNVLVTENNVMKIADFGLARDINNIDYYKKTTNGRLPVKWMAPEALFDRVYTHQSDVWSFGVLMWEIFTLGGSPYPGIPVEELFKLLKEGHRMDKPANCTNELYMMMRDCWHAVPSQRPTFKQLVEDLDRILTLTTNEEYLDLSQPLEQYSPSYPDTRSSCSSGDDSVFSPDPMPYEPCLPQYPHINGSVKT
# [9] = AUClast in Sprague-Dawley rat at 1 mg/kg, iv by LC-MS/MS analysis; format: ADME, organism-based; parameters: dose 1 mg/kg, time 0 - last, route intravenous; settings: in vivo
# [10] = Clearance in Sprague-Dawley rat at 1 mg/kg, iv by LC-MS/MS analysis; format: ADME, organism-based; settings: in vivo
# [11] = Half life in Sprague-Dawley rat at 1 mg/kg, iv by LC-MS/MS analysis; format: ADME, organism-based; settings: in vivo
# [12] = AUCinfinity in Sprague-Dawley rat at 3 mg/kg, po administered via gavage by LC-MS/MS analysis; format: ADME, organism-based; parameters: dose 3 mg/kg, time infinity, route oral; settings: in vivo
# [13] = molecular target: T1, Fibroblast growth factor receptor 3 (Homo sapiens, UniProt P22607); assay: Inhibition of recombinant FGFR3 (unknown origin) using poly (Glu, Tyr) 4:1 as substrate after 60 mins by ELISA based spectrophotometric method
# T1 sequence (P22607 whole entry): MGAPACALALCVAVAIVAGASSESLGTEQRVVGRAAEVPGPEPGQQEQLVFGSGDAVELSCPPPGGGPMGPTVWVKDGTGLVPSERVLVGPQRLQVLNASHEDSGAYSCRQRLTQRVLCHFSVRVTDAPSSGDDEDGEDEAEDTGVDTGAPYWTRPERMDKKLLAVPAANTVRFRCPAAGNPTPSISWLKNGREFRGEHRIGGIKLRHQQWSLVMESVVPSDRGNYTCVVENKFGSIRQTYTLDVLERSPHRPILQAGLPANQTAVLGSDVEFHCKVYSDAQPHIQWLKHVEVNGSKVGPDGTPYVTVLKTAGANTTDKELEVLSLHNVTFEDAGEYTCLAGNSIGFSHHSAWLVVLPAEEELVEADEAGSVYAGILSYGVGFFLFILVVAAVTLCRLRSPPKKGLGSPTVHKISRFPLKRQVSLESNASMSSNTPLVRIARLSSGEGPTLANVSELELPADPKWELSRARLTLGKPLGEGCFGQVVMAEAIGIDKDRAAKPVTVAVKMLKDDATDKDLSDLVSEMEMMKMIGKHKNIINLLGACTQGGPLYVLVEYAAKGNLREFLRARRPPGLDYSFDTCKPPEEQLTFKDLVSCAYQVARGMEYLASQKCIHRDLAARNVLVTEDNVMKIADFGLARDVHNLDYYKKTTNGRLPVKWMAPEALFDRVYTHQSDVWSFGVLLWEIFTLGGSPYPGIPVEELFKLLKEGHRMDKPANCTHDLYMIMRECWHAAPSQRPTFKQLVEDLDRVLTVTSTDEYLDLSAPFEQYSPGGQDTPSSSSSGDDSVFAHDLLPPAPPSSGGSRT
# [14] = Oral bioavailability in Sprague-Dawley rat at 3 mg/kg administered via gavage by LC-MS/MS analysis; format: ADME, organism-based; settings: in vivo
# [15] = molecular target: Vascular endothelial growth factor receptor 2 (Homo sapiens, UniProt P35968); assay: Inhibition of recombinant VEGFR2 (unknown origin) using poly (Glu, Tyr) 4:1 as substrate after 60 mins by ELISA based spectrophotometric method
# Vascular endothelial growth factor receptor 2, sequence (P35968 whole entry): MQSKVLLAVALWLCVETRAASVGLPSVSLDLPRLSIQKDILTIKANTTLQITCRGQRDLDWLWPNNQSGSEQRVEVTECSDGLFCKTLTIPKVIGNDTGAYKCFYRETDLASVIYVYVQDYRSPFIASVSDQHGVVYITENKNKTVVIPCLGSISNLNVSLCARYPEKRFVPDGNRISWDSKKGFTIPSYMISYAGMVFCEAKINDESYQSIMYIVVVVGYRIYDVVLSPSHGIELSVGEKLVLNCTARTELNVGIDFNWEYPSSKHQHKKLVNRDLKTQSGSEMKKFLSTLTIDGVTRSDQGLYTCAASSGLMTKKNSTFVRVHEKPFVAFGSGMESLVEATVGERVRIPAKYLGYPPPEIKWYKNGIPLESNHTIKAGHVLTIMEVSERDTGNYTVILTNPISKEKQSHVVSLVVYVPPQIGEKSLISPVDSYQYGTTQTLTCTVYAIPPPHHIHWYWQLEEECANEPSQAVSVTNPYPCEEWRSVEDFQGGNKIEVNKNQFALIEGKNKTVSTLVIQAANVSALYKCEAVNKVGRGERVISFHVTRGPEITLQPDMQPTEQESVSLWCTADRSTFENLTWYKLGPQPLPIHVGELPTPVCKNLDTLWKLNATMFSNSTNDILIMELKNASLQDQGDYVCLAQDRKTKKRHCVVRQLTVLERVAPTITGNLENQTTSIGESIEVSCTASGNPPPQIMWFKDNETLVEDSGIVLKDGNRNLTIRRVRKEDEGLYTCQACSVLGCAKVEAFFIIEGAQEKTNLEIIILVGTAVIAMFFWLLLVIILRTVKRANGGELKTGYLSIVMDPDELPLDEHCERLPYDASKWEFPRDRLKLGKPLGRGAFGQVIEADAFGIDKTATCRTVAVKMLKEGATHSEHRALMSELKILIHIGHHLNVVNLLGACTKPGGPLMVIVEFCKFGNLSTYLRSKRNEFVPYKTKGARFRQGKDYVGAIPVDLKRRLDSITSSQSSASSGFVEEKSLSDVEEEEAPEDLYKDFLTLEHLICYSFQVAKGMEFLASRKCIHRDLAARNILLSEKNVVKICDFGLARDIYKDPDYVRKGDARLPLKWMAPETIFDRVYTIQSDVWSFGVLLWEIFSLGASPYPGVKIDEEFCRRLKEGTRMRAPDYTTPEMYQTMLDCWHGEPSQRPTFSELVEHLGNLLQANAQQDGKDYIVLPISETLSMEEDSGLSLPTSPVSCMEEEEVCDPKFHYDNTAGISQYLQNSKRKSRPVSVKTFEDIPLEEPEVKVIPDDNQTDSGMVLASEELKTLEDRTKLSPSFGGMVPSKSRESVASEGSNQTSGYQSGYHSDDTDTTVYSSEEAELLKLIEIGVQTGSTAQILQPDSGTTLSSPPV
# [16] = Volume of distribution at steady state in Sprague-Dawley rat at 1 mg/kg, iv by LC-MS/MS analysis; format: ADME, organism-based; settings: in vivo, read-out: Vdss
# [17] = AUClast in Sprague-Dawley rat at 3 mg/kg, po administered via gavage by LC-MS/MS analysis; format: ADME, organism-based; parameters: dose 3 mg/kg, time 0 - last, route oral; settings: in vivo
# [18] = Half life in Sprague-Dawley rat at 3 mg/kg, po administered via gavage by LC-MS/MS analysis; format: ADME, organism-based; settings: in vivo
# SNU-16 [19] = settings: Homo sapiens
# Description: Antitumor activity against human SNU16 cells xenografted in nude mouse assessed as tumor growth inhibition administered ip qd for 21 consecutive days and measured twice per week
# [20] = molecular target: T1, Fibroblast growth factor receptor 3; assay: Inhibition of FGFR3 (unknown origin)
Compound,IC50 [1],IC50 (KG-1),further results
CCNC(=O)Nc1ccc(Oc2ccnc(NC(=O)c3ccc(N4C[C@@H](C)N[C@@H](C)C4)cc3)c2)c(OC)c1,36.1 nM,548 nM,
CNC(=O)c1cccc2cc(Oc3ccnc(NC(=O)c4cnc(N5C[C@@H](C)N[C@@H](C)C5)nc4)c3)ccc12,10.2 nM,30.3 nM,
CNC(=O)c1cccc2cc(Oc3ccnc(NC(=O)c4ccc(N5C[C@@H](C)N[C@@H](C)C5)cc4F)c3)ccc12,> 1000 nM,,
COc1cc(OC)c(Cl)c(CCOc2ccnc(NC(=O)c3ccc(N4C[C@@H](C)N[C@@H](C)C4)cc3)c2)c1Cl,> 1000 nM,,
CCNC(=O)N1CCCc2cc(Oc3ccnc(NC(=O)c4ccc(N5C[C@@H](C)N[C@@H](C)C5)cc4)c3)ccc21,132 nM,118 nM,
CNC(=O)c1cccc2cc(Oc3ccnc(NC(=O)c4ccc(N5CCN(C)CC5)cc4)c3)ccc12.Cl.Cl,,,solubility [2]: Soluble; inhibition in vivo at 50 mg/kg (SNU-16 [3]): 81%; inhibition in vivo at 10 mg/kg (SNU-16 [4]): 25%; Activity (Mus musculus): Non-Toxic
CNC(=O)c1cccc2cc(Oc3ccnc(NC(=O)c4ccc(N5C[C@@H](C)N[C@@H](C)C5)cc4OC)c3)ccc12,285 nM,,
CNC(=O)c1cccc2cc(Oc3ccnc(NC(=O)c4ccc(N5C[C@@H](C)N[C@@H](C)C5)cc4C)c3)ccc12,12.9 nM,> 1000 nM,
COc1cc(CCOc2ccnc(NC(=O)c3ccc(N4C[C@@H](C)N[C@@H](C)C4)cc3)c2)cc(OC)c1,> 1000 nM,,
CCNC(=O)Nc1cccc2cc(Oc3ccnc(NC(=O)c4ccc(N5C[C@@H](C)N[C@@H](C)C5)cc4)c3)ccc12,67.5 nM,504 nM,
CC(Oc1ccc(NC(=O)c2ccc(N3C[C@@H](C)N[C@@H](C)C3)cc2)nc1)c1c(Cl)cncc1Cl (some centres undefined),> 1000 nM,,
COc1cc(CCc2cc(NC(=O)c3ccc(N4C[C@@H](C)N[C@@H](C)C4)cc3)n[nH]2)cc(OC)c1 [FEXAGRATINIB],,1.9 to 8.7 nM,IC50 (BaF3): 222 nM; IC50 (RT-112): 83.8 nM; IC50 (NCI-H1581): 40 nM; IC50 [5]: 26.9 nM; IC50 (SNU-16 [6]): 6.2 nM
CNC(=O)c1cccc2cc(Oc3ccnc(NC(=O)c4ccc(N5CCN(C)CC5)cc4)c3)ccc12 [listing 1 of 2 here],,< 0.5 nM,AUC(0-inf) [7]: 49 ng·h/mL; IC50 (BaF3): < 1.5 nM; IC50 [8]: 4.5 nM; IC50 (RT-112): 52.6 nM; AUC(0-t) [9]: 47.9 ng·h/mL; clearance [10]: 346 mL/min/kg; IC50 (NCI-H1581): 22.3 nM; half-life [11]: 0.897 h; AUC(0-inf) [12]: 22.7 ng·h/mL; IC50 [5]: 1.7 nM; IC50 [13]: 10.6 nM; bioavailability [14]: 14.9%; IC50 [15]: 2.9 nM; Vd [16]: 16.7 L/kg; IC50 (SNU-16 [6]): < 0.5 nM; AUC(0-t) [17]: 21.4 ng·h/mL; half-life [18]: 1.85 h
CNC(=O)c1cccc2cc(Oc3ccnc(NC(=O)c4csc(N5CCN(C)CC5)n4)c3)ccc12,7.6 nM,,
C=CC(=O)Nc1ccc(C(=O)Nc2cc(Oc3ccc4c(C(=O)NC)cccc4c3)ccn2)cc1,12.8 nM,369 nM,
COc1cc(OC)c(F)c(COc2ccc(NC(=O)c3ccc(N4C[C@@H](C)N[C@@H](C)C4)cc3)nc2)c1F,22.2 nM,116 nM,
CNC(=O)c1cccc2cc(Oc3ccnc(NC(=O)c4cnn(CCO)c4)c3)ccc12,23.5 nM,278 nM,
CNC(=O)c1cccc2cc(Oc3ccnc(NC(=O)c4ccc(N5CCN(C)CC5)cc4)c3)ccc12 [listing 2 of 2 here],,,TGI (SNU-16 [19]): Dose-dependent effect
CNC(=O)c1cccc2cc(Oc3ccnc4cc(OCC5(N)CC5)c(OC)cc34)ccc12 [LUCITANIB],,,IC50 [20]: 238 nM

# Further lines, with some results ahead:
IC50 [1],Compound,IC50 (KG-1),further results
6.1 nM,CNC(=O)c1cccc2cc(Oc3ccnc(NC(=O)c4ccc(OCCN5CC(F)(F)C5)cc4)c3)ccc12,< 4.1 nM,
2.8 nM,CNC(=O)c1cccc2cc(Oc3ccnc(NC(=O)c4coc(N5CCN(C)CC5)n4)c3)ccc12,,
1.6 nM,CNC(=O)c1cccc2cc(Oc3ccnc(NC(=O)c4ccc(C5CCNCC5)cc4)c3)ccc12,72.2 nM,
6.2 nM,CNC(=O)c1cccc2cc(Oc3ccnc(NC(=O)c4ccc(NCC5(O)CCOCC5)cc4)c3)ccc12,< 4.1 nM,
3.6 nM,CNC(=O)c1cccc2cc(Oc3ccnc(NC(=O)c4ccc(OCCN5CC(F)C5)cc4)c3)ccc12,5.1 nM,
1.2 nM,CNC(=O)c1cccc2cc(Oc3ccnc(NC(=O)c4ccc(N5CCOCC5)cc4)c3)ccc12,9.3 nM,
4.1 nM,CNC(=O)c1cccc2cc(Oc3ccnc(NC(=O)c4ccc(OCCN5CCCC5)cc4)c3)ccc12,< 4.1 nM,
4.6 nM,COC(=O)c1cccc2cc(Oc3ccnc(NC(=O)c4ccc(N5C[C@@H](C)N[C@@H](C)C5)cc4)c3)ccc12,159 nM,
1.9 nM,CNC(=O)c1cccc2cc(Oc3ccnc(NC(=O)c4ccc(N5CC(C)OC(C)C5)cc4)c3)ccc12 (centres undefined),154 nM,
2.1 nM,CNC(=O)c1cccc2cc(Oc3ccnc(NC(=O)c4ccc(N5C[C@@H](C)N[C@@H](C)C5)cc4)c3)ccc12,14.9 nM,
1.9 nM,CNC(=O)c1cccc2cc(Oc3ccnc(NC(=O)c4ccc(N5CCN(CCO)CC5)cc4)c3)ccc12,5.8 nM,
1.2 nM,CNC(=O)c1cccc2cc(Oc3ccnc(NC(=O)c4ccc(C5CCN(CCO)CC5)cc4)c3)ccc12,< 4.1 nM,
2 nM,CNC(=O)c1cccc2cc(Oc3ccnc(NC(=O)c4ccc(N5CCNC(C)C5)cc4)c3)ccc12 (centres undefined),< 4.1 nM,
7.4 nM,CNC(=O)c1cccc2cc(Oc3ccnc(NC(=O)c4ccc(OCC5(N)CC5)cc4)c3)ccc12,54.5 nM,
